Test results reported in US20210386733A1, “LYSINE-SPECIFIC HISTONE DEMETHYLASE INHIBITORS FOR THE TREATMENT OF MYELOPROLIFERATIVE NEOPLASMS” (Imago Biosciences, Inc., priority 2019, published 2021).
Where a name gives a salt, the structure may show the parent alone.

Assays:
[1] = system: patients with myelofibrosis; assay: Phase 2B clinical trial of Compound 1 in myelofibrosis (Example 2); assay type: in vivo, human
Description: A multi-center, open label, dose-range finding study to assess the safety, optimally effective dosing rules, steady-state pharmacokinetics and pharmacodynamics of Compound 1 orally once daily in patients with myelofibrosis was conducted in a Phase 1/2a study. • Primary objectives were to evaluate, in MF patients the effect of Compound 1 on: Safety and tolerability • Pharmacokinetics (Phase 1/2a only) • Reduction in spleen volume
This study initiated as a Phase 1/2a study assessing the safety of the starting dose, an 85 day duration of treatment, and the pharmacokinetic and pharmacodynamic effects of Compound 1, with transition to a Phase 2b study incorporating changes supported by the earlier pharmacokinetic and pharmacodynamic studies and safety assessments. This study consisted of two treatment periods: the Initial Treatment Period (ITP), followed by the Additional Treatment Period (ATP). Patients commenced enrolment in the Phase 2b portion of the study, in which the ITP has been extended such that patients were treated daily for 169 days. The ATP, also extended, offered treatment to qualifying patients for an additional 169 days.
Initial Treatment Period. During the ITP, patients initially returned for study assessments twice weekly for the first week (ITP Days 0, 3 and 7); post-dosing of 3 patients at the new Ds, the DSMC convened to assess the necessity of the Day 3 visit. Patients returned weekly for the next 7 weeks (ITP Days 14, 21, 28, 35, 42, 49 and 56), at least bi-weekly for 8 weeks (ITP Days 70, 84, 98 and 112) and then monthly for 8 weeks (ITP Days 140 and 168). It was anticipated that by Week 8 (Day 56) patients will have achieved a stable dose, with weekly titrations no longer necessary. For the exceptional patient whose dose had not stabilized, weekly visits continued at the PI's discretion (note: bi-weekly visits may also continue post Day 112). On Days 84 and 168, patients underwent abdominal magnetic resonance imaging (MRI), or computerized tomography (CT) if the patient was not a candidate for MRI. On Day 168, bone marrow sampling was also required. Prior to or at the Day 168 visit, but ideally at the Day 140 visit for logistical purposes, a ‘qualification’ assessment was made to determine whether the patient is deriving clinical benefit (defined as not meeting progressive disease criteria and safely tolerating Compound 1; this definition applies throughout document and will not be repeated with each reference to clinical benefit). Such patients qualified for entry into the ATP, a transition which was anticipated to occur without interruption in dosing. Patients not deriving clinical benefit, or who achieve complete response (CR), partial response (PR) or clinical improvement (CI) and subsequently relapse the equivalent of treatment failures, discontinued Compound 1 and undergo End of Treatment (EoT), pre-End of Study (pre-EoS) and End of Study (EoS) visits.
Initial Treatment Period (ITP). Treatment began on Day 0 at the Ds of 0.5 mg/kg QD for all patients entering the Phase 2b portion of the study. Dose-adjustments could be made at each clinic visit (with the exception of Day 3), with dose-titration, either upward or downward, contingent on the comparison of hematology values from the prior visit, as dictated by the rules below. The Dpi was anticipated to be ≤1.2 mg/kg QD; however, this was not the upper limit for titration purposes as the dose needed to achieve a therapeutic effect will vary among patients and may change over time. The platelet titration target expected to be associated with a clinically significant therapeutic effect was a platelet count of ≥50,000 to ≤75,000/μL (50-75×10^9/L). Titration and re-challenge rules based on evaluation of platelet, absolute neutrophil (ANC) and hemoglobin (Hgb) counts are noted below. […]

[2] = system: somatic mutations in myeloid neoplasm genes (JAK2, CALR, MPL, ASXL1 etc.); assay: Sequencing of somatic mutations, variant allele frequency (VAF) in treated patients (Example 3); assay type: in vivo, human
From the text: The following characterize the sequencing protocol: • Samples: Germline (buccal or hair) and “Tumor” (bone marrow, peripheral blood, granulocytes) • Target enrichment: 11,736 hybridization probes in IDT AML panel targeting 261 genes (˜6300 exons) recurrently mutated in myeloid neoplasms • Illumina sequencing: 2×150 bp paired-end sequencing; ˜10 million pairs sequenced per sample • Aiming for sequencing depth >500; Actual: >1000 for >90% of samples • Analysis: Burrows-Wheeler alignment (BWA)=>VARSCAN2 genotyper=>IGV for CALR, etc. • Cutoffs for somatic calls: Sequencing Depth: >20 Mutant (or Variant) Allele Frequency (VAF): >15% • Annotation: All calls submitted to CADD (Combined Annotation Dependent Depletion) at University of Washington • CADD score cutoff >20 identifies the top 1% of the most deleterious mutations

[3] = Phase 2b patients at Week 12, n=14

CN1CCN(C(=O)[C@H](CCCN[C@@H]2C[C@H]2c2ccc(F)cc2)NC(=O)c2ccc(-n3ccnn3)cc2)CC1 [Compound 1, N-[(2S)-5-{[(1R, 2S)-2-(4-fluorophenyl)cyclopropyl]amino}-1-(4-methylpiperazin-1-yl)-1-oxopentan-2-yl]-4-(1H-1,2,3-triazol-1-yl)benzamide, bis-tosylate salt]
patients with a decrease in spleen volume [1, 3]: 86% | patients with a spleen volume reduction of ≥20% [1, 3]: 29% | patients with a spleen volume reduction of ≥35% [1, 3]: 14% | median change in spleen volume to Wk 12 ([1]; Phase 2b patients, n=14): −15% | patients with a decrease in symptom score ([1]; all patients at Week 12, n=32): 78% | patients with a reduction in symptom score of ≥50% ([1]; all patients at Week 12, n=32): 25% | patients showing a decrease in some or all somatic mutations ([2]; 22 patients): 32% | patients with increased VAFs ([2]; 22 patients): 14% | patients with stable VAFs ([2]; 22 patients): 55% | progression to AML ([2]; human, in vivo): No progression to AML | new mutations ([2]; patients followed up to 550+ days): No new mutations identified
